Assay results published in patent US5705487A, “Antithrombotic agents” (priority 1995, dated 1998).
Counter-ions that a name gives are not always drawn.

Tests used:
Format in all cases: biochemical
Human Thrombin = Human Thrombin (Homo sapiens, UniProt P00734); assay: Inhibition of the amidase activity of thrombin (Kass); conditions: chromogenic substrate N-benzoyl-Phe-Val-Arg-p-nitroanilide; mean over range of concentrations
Description: The 150 μL of an aqueous solution of the chromogenic substrate (at 0.25 mg/mL) are added and the rates of hydrolysis of the substrate are measured by monitoring the reactions at 405 nm for the release of p-nitroaniline. Standard curves are constructed by plotting free thrombin concentration against hydrolysis rate. […] The amount of free inhibitor in each assay is calculated by subtracting the number of moles of bound thrombin from the number of moles of added inhibitor (test compound).
The Kass value is the hypothetical equilibrium constant for the reaction between thrombin and the test compound (I).
Kass is calculated for a range of concentrations of test compounds and the mean value is reported in units of liter per mole.

factor Xa = molecular target: T1, factor Xa (Homo sapiens, UniProt P00742); assay: Kass, factor Xa chromogenic substrate assay; conditions: substrate N-Benzoyl-Ile-Glu-Gly-Arg-p-nitroanilide
T1 construct: Human factors X, Xa, IXa, XIa, and XIIa are purchased; purchased Enzyme Research Laboratories, South Bend, Ind
T1 sequence (P00742 235-488 limits assumed): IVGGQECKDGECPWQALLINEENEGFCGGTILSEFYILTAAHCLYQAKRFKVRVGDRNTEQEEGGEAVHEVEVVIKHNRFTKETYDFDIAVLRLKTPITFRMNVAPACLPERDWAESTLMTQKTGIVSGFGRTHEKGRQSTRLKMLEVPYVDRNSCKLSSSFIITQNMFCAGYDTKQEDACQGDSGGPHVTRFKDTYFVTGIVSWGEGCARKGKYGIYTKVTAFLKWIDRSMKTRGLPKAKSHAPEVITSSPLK
T1 sequence (P00742 41-179 partner limits assumed): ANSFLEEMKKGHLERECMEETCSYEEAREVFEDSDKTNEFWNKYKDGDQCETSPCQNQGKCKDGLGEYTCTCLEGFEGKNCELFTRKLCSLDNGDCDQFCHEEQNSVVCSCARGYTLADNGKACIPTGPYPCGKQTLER

Bovine trypsin = molecular target: T2, Bovine trypsin (Bos taurus, UniProt P00760); assay: Kass, trypsin chromogenic substrate assay; conditions: substrate N-Benzoyl-Phe-Val-Arg-p-nitroanilide
T2 construct: Bovine trypsin is purchased from Worthington Biochemicals; purchased Worthington Biochemicals, Freehold, N.J
T2 sequence (P00760 24-246): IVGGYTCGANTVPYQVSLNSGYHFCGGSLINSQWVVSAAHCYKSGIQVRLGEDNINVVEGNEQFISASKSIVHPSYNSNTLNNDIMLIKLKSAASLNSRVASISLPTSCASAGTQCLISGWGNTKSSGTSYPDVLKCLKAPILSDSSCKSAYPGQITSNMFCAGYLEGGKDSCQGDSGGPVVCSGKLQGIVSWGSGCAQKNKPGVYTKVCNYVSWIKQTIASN
Description: (§3) By substantially following the procedures described above for human thrombin, and using other human blood coagulation system serine proteases and proteases of the fibrinolytic system with the appropriate chromogenic substrates, identified below, selectivity of the compounds of the present invention with respect to the coagulation factor serine proteases and with respect to the fibrinolytic system serine proteases are evaluated as well as their substantial lack of interference with serine proteases of the fibrinolytic system.
Chromogenic substrates: N-Benzoyl-Ile-Glu-Gly-Arg-p-nitroanilide (for factor Xa); N-Cbz-D-Arg-Gly-Arg-p-nitroanilide (for factor IXa assay as the factor Xa substrate); Pyroglutamyl-Pro-Arg-p-nitroanilide (for Factor XIa and for aPC); H-D-Pro-Phe-Arg-p-nitroanilide (for factor XIIa); and Pyroglutamyl-Gly-Arg-p-nitroanilide (for urokinase); are purchased from KabiVirum, Stockholm, Sweden, or from Midwest Biotech, Fishers, Ind. Bovine trypsin is purchased from Worthington Biochemicals, Freehold, N.J., and human plasma kallikrein from Kabi Vitrum, Stockholm, Sweden. […] N-Benzoyl-Phe-Val-Arg-p-nitroanilide, the substrate for human thrombin and for trypsin, is synthesized according to procedures described above for the compounds of the present invention, using known methods of peptide coupling from commercially available reactants or purchased from Midwest Biotech, Fishers, Ind.

Human plasmin = molecular target: T3, Human plasmin (Homo sapiens, UniProt P00747); assay: Kass, plasmin chromogenic substrate assay; conditions: substrate H-D-Val-Leu-Lys-p-nitroanilide
T3 construct: Human plasmin is purchased from Boehringer Mannheim; purchased Boehringer Mannheim, Indianapolis, Ind
T3 sequence (P00747 581-810 limits assumed): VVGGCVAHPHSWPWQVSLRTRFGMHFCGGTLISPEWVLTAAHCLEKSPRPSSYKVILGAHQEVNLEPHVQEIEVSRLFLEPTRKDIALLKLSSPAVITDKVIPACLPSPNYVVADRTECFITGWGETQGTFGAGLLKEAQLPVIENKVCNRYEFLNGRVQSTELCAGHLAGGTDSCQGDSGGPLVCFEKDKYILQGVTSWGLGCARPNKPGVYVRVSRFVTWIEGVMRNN
T3 sequence (P00747 97-580 partner limits assumed): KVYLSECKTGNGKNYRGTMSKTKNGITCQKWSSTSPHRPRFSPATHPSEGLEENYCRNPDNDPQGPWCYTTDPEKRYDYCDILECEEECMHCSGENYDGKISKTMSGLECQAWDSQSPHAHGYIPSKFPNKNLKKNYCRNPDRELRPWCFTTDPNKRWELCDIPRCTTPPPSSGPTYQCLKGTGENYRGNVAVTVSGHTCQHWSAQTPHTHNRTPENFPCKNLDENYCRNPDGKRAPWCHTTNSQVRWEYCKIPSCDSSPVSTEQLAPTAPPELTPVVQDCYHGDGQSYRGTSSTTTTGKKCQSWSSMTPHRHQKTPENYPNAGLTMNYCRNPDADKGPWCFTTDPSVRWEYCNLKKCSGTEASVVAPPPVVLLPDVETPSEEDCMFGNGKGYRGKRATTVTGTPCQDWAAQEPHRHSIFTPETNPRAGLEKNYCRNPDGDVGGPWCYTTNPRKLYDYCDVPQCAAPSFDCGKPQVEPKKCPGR

t-PA = molecular target: T4, t-PA (Homo sapiens, UniProt P00750); assay: Kass, t-PA chromogenic substrate assay; conditions: substrate H-D-Ile-Pro-Arg-p-nitroanilide
T4 construct: purchased American Diagnostica, Greenwich, Conn
T4 sequence (P00750 36-562): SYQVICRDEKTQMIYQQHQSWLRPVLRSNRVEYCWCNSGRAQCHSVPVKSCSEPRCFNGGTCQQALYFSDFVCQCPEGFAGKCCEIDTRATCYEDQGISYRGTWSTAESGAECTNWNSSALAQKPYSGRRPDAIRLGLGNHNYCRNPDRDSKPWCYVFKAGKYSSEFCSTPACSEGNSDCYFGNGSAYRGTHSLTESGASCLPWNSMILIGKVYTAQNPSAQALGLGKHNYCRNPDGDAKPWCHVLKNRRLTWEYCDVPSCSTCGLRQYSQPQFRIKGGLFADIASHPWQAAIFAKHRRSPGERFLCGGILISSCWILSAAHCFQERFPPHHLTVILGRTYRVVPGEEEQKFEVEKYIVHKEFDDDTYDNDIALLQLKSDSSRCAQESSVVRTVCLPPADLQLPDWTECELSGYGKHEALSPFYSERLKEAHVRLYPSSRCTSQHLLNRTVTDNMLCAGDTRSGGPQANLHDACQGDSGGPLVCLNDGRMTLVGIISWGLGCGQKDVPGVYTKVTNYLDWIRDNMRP
Description: as §3
Human plasmin is purchased from Boehringer Mannheim, Indianapolis, Ind.; nt-PA is purchased as single chain activity reference from American Diagnostica, Greenwich, Conn.; modified-t-PA6 (mt-PA6) is prepared at Eli Lilly and Company by procedure known in the art (See, Burck, et al., J. Biol. Chem., 265, 5120-5177 (1990). Plasmin chromogenic substrate H-D-Val-Leu-Lys-p-nitroanilide and tissue plasminogen activator (t-PA) substrate H-D-Ile-Pro-Arg-p-nitroanilide are purchased from Kabi Vitrum, Stockholm, Sweden.

Human Plasma [1] = assay: Human plasma anticoagulation, thrombin time (TT); conditions: concentration required to double the clotting time
Description: (§1) Dog plasma and rat plasma is obtained from conscious mixed-breed hounds (either sex, Hazelton-LRE, Kalamazoo, Mich., U.S.A.) or from anesthetized male Sprague-Dawley rats (Harlan Sprague-Dawley, Inc., Indianapolis, Ind., U.S.A.) by venipuncture into 3.8 percent citrate. Fibrinogen is prepared from in-date ACD human blood as the fraction I-2 according to previous procedures and specifications. […] Human fibrinogen is also purchased as 98 percent pure/plasmin free from American Diagnostica, Greenwich, Conn. Coagulation reagents ACTIN, Thromboplastin, and Human plasma are from Baxter Healthcare Corp., Dade Division, Miami, Fla. Bovine thrombin from Parke-Davis ([…], Mich.) is used for coagulation assays in plasma.
(§2) Coagulation assay procedures are as previously described. […] A CoAScreener coagulation instrument (American LABor, Inc.) is used for all coagulation assay measurements. The prothrombin time (PT) is measured by adding 0.05 mL saline and 0.05 mL Thromboplastin-C reagent to 0.05 mL test plasma. The activated partial thromboplastin time (APTT) is measured by incubation of 0.05 mL test plasma with 0.05 mL Actin reagent for 120 seconds followed by 0.05 mL CaCl2 (0.02M). The thrombin time (TT) is measured by adding 0.05 mL saline and 0.05 mL thrombin (10 NIH units/mL) to 0.05 mL test plasma. The compounds of Formula I are added to human or animal plasma over a wide range of concentrations to determine prolongation effects on the APTT, PT, and TT assays. Linear extrapolations are performed to estimate the concentrations required to double the clotting time for each assay.

Human Plasma [2] = assay: Human plasma anticoagulation, activated partial thromboplastin time (APTT); conditions: concentration required to double the clotting time
Description: as §1, §2

Human Plasma [3] = assay: Human plasma anticoagulation, prothrombin time (PT); conditions: concentration required to double the clotting time
Description: as §1, §2

Compound: Cl.N=C(N)N1CCC(CNC(=O)[C@@H]2CCCN2C(=O)[C@@H](CC2CCCCC2)NCC(=O)O)CC1 [Example 56, HO2 CCH2 -D-Cha-Pro-4-NHCH2 -1-amidinopiperidine.HCl]
- Kass × 10^6 (L/mole) Human Thrombin (Human Thrombin): 490 × 10^6 L/mole
- Kass × 10^6 (L/mole) Xa (factor Xa): 0.20 × 10^6 L/mole
- Kass × 10^6 (L/mole) Trypsin (Bovine trypsin): 3.6 × 10^6 L/mole
- Kass × 10^6 (L/mole) Plasmin (Human plasmin): 0.01 × 10^6 L/mole
- Kass × 10^6 (L/mole) t-PA (t-PA): < 0.001 × 10^6 L/mole
- Human Plasma Anticoagulation 2x Clotting time TT (Human Plasma [1]): 5 ng/mL
- Human Plasma Anticoagulation 2x Clotting time APTT (Human Plasma [2]): 160 ng/mL
- Human Plasma Anticoagulation 2x Clotting time PT (Human Plasma [3]): 200 ng/mL

Compound: Cl.O=C(O)CN[C@H](CC1CCCCC1)C(=O)N1CCC[C@H]1C(=O)NCCC1=CCNCC1 [Example 59, HO2 CCH2 -D-Cha-Pro-4-NHCH2 CH2 -3,4-dehydro-piperidine.HCl]
- Kass × 10^6 (L/mole) Human Thrombin (Human Thrombin): 1.10 × 10^6 L/mole
- Kass × 10^6 (L/mole) Xa (factor Xa): < 0.001 × 10^6 L/mole
- Kass × 10^6 (L/mole) Trypsin (Bovine trypsin): 0.21 × 10^6 L/mole
- Kass × 10^6 (L/mole) Plasmin (Human plasmin): < 0.001 × 10^6 L/mole
- Kass × 10^6 (L/mole) t-PA (t-PA): < 0.001 × 10^6 L/mole
- Human Plasma Anticoagulation 2x Clotting time TT (Human Plasma [1]): 420 ng/mL
- Human Plasma Anticoagulation 2x Clotting time APTT (Human Plasma [2]): 5,500 ng/mL
- Human Plasma Anticoagulation 2x Clotting time PT (Human Plasma [3]): 7,000 ng/mL

Compound: N=C(N)c1cccc(CCCNC(=O)[C@@H]2CCCN2C(=O)[C@@H]2NCC[C@@H]3CCCC[C@@H]32)c1 [Example 33, 1-Piq-Pro-m-NHCH2 CH2 CH2 -C6 H4 C(=NH)NH2.HCl]
- Kass × 10^6 (L/mole) Human Thrombin (Human Thrombin): 0.04 × 10^6 L/mole
- Kass × 10^6 (L/mole) Xa (factor Xa): 0.04 × 10^6 L/mole
- Kass × 10^6 (L/mole) Trypsin (Bovine trypsin): 0.02 × 10^6 L/mole
- Kass × 10^6 (L/mole) Plasmin (Human plasmin): < 0.001 × 10^6 L/mole
- Kass × 10^6 (L/mole) t-PA (t-PA): < 0.001 × 10^6 L/mole
- Human Plasma Anticoagulation 2x Clotting time TT (Human Plasma [1]): 18,900 ng/mL
- Human Plasma Anticoagulation 2x Clotting time APTT (Human Plasma [2]): 59,300 ng/mL
- Human Plasma Anticoagulation 2x Clotting time PT (Human Plasma [3]): 70,900 ng/mL

Compound: HOOCCH2 -D-Phe-Pro(4-cis-isoamyl)-p-NHCH2 C6 H4 C(NH)NH2.HCl [Example 50]
- Kass × 10^6 (L/mole) Human Thrombin (Human Thrombin): 40 × 10^6 L/mole
- Kass × 10^6 (L/mole) Xa (factor Xa): 4.3 × 10^6 L/mole
- Kass × 10^6 (L/mole) Plasmin (Human plasmin): 1.8 × 10^6 L/mole
- Kass × 10^6 (L/mole) t-PA (t-PA): 0.04 × 10^6 L/mole
- Human Plasma Anticoagulation 2x Clotting time TT (Human Plasma [1]): 35 ng/mL
- Human Plasma Anticoagulation 2x Clotting time APTT (Human Plasma [2]): 460 ng/mL
- Human Plasma Anticoagulation 2x Clotting time PT (Human Plasma [3]): 420 ng/mL

Compound: N=C(N)NCCCNC(=O)[C@@H]1CCCN1C(=O)[C@H](N)Cc1ccccc1 [Example 7, D-Phe-Pro-NH(CH2)3 NHC(NH)NH2.HCl]
- Kass × 10^6 (L/mole) Human Thrombin (Human Thrombin): 1.9 × 10^6 L/mole
- Kass × 10^6 (L/mole) Xa (factor Xa): 0.0041 × 10^6 L/mole
- Kass × 10^6 (L/mole) Trypsin (Bovine trypsin): 0.0081 × 10^6 L/mole
- Kass × 10^6 (L/mole) Plasmin (Human plasmin): 0.00022 × 10^6 L/mole
- Kass × 10^6 (L/mole) t-PA (t-PA): 0.0037 × 10^6 L/mole
- Human Plasma Anticoagulation 2x Clotting time TT (Human Plasma [1]): 490 ng/mL

Compound: Cl.Nc1ccc(CCNC(=O)[C@@H]2CCCN2C(=O)[C@H](N)Cc2ccccc2)cc1 [Example 14, D-Phe-Pro-P-NHCH2 CH2 C6 H4 NH2.HCl]
- Kass × 10^6 (L/mole) Human Thrombin (Human Thrombin): 0.021 × 10^6 L/mole
- Kass × 10^6 (L/mole) Xa (factor Xa): 0.00014 × 10^6 L/mole
- Kass × 10^6 (L/mole) Trypsin (Bovine trypsin): 0.000056 × 10^6 L/mole
- Kass × 10^6 (L/mole) Plasmin (Human plasmin): 0.000046 × 10^6 L/mole
- Kass × 10^6 (L/mole) t-PA (t-PA): < 0.001 × 10^6 L/mole
- Human Plasma Anticoagulation 2x Clotting time TT (Human Plasma [1]): 21,000 ng/mL

Compound: O=C(O)CN[C@H](CC1CCCCC1)C(=O)N1CCC[C@H]1C(=O)NCC1CCNCC1 [Example 53, HO2 CCH2 -D-Cha-Pro-4-NHCH2 -piperidine.HCl]
- Kass × 10^6 (L/mole) Plasmin (Human plasmin): < 0.001 × 10^6 L/mole
- Kass × 10^6 (L/mole) t-PA (t-PA): < 0.001 × 10^6 L/mole

Compound: Cl.NC[C@H]1CC[C@H](CNC(=O)[C@@H]2CCCN2C(=O)[C@H](N)Cc2ccccc2)CC1 (relative stereo) [Example 12, D-Phe-Pro-NHCH2 -trans-4-(aminomethyl)cyclohexane.HCl]
- Kass × 10^6 (L/mole) Human Thrombin (Human Thrombin): 0.44 × 10^6 L/mole
- Kass × 10^6 (L/mole) Xa (factor Xa): 0.000042 × 10^6 L/mole
- Kass × 10^6 (L/mole) Trypsin (Bovine trypsin): 0.0022 × 10^6 L/mole
- Kass × 10^6 (L/mole) Plasmin (Human plasmin): 0.00087 × 10^6 L/mole
- Kass × 10^6 (L/mole) t-PA (t-PA): 0.000042 × 10^6 L/mole
- Human Plasma Anticoagulation 2x Clotting time TT (Human Plasma [1]): 1,700 ng/mL

Compound: CCOC(=O)N[C@H](Cc1ccccc1)C(=O)N1CCC[C@H]1C(=O)NCCCCN=C(N)N.Cl [Example 3, EtOCO-D-Phe-Pro-Agm.HCl]
- Kass × 10^6 (L/mole) Human Thrombin (Human Thrombin): 2.1 × 10^6 L/mole
- Kass × 10^6 (L/mole) Xa (factor Xa): 0.0021 × 10^6 L/mole
- Kass × 10^6 (L/mole) Trypsin (Bovine trypsin): 0.24 × 10^6 L/mole
- Kass × 10^6 (L/mole) Plasmin (Human plasmin): 0.0046 × 10^6 L/mole
- Kass × 10^6 (L/mole) t-PA (t-PA): 0.033 × 10^6 L/mole
- Human Plasma Anticoagulation 2x Clotting time TT (Human Plasma [1]): 590 ng/mL

Compound: Cl.NCc1cccc(CNC(=O)[C@@H]2CCCN2C(=O)[C@H](N)Cc2ccccc2)c1 [Example 11, D-Phe-Pro-m-NHCH2 C6 H4 CH2 NH2.HCl]
- Kass × 10^6 (L/mole) Human Thrombin (Human Thrombin): 0.064 × 10^6 L/mole
- Kass × 10^6 (L/mole) Xa (factor Xa): 0.000068 × 10^6 L/mole
- Kass × 10^6 (L/mole) Trypsin (Bovine trypsin): 0.0036 × 10^6 L/mole
- Kass × 10^6 (L/mole) Plasmin (Human plasmin): 0.0060 × 10^6 L/mole
- Kass × 10^6 (L/mole) t-PA (t-PA): < 0.001 × 10^6 L/mole
- Human Plasma Anticoagulation 2x Clotting time TT (Human Plasma [1]): 8,800 ng/mL

Compound: N=C(N)NCc1ccc(CNC(=O)[C@@H]2CCCN2C(=O)[C@H](N)Cc2ccccc2)cc1 [Example 9, D-Phe-Pro-p-NHCH2 -C6 H4 CH2 NHC(NH)NH2.2TFA]
- Kass × 10^6 (L/mole) t-PA (t-PA): < 0.001 × 10^6 L/mole

Compound: N=C(N)Nc1ccc(CNC(=O)[C@@H]2CCCN2C(=O)[C@@H]2NCC[C@@H]3CCCC[C@@H]32)cc1 [Example 38, D-1-Piq-Pro-p-NHCH2 C6 H4 NHC(NH)NH2.2HCl]
- Kass × 10^6 (L/mole) Human Thrombin (Human Thrombin): 1.1 × 10^6 L/mole
- Kass × 10^6 (L/mole) Xa (factor Xa): < 0.001 × 10^6 L/mole
- Kass × 10^6 (L/mole) Trypsin (Bovine trypsin): 0.07 × 10^6 L/mole
- Kass × 10^6 (L/mole) Plasmin (Human plasmin): < 0.001 × 10^6 L/mole
- Human Plasma Anticoagulation 2x Clotting time TT (Human Plasma [1]): 540 ng/mL
- Human Plasma Anticoagulation 2x Clotting time APTT (Human Plasma [2]): 6,100 ng/mL
- Human Plasma Anticoagulation 2x Clotting time PT (Human Plasma [3]): 11,100 ng/mL

Compound: CCS(=O)(=O)N[C@H](Cc1ccccc1)C(=O)N1CCC[C@H]1C(=O)NCc1cccc(C(=N)N)c1 [Example 24, EtSO2 -D-Phe-Pro-m-NHCH2 -C6 H4 C(=NH)NH2.HCl]
- Kass × 10^6 (L/mole) Plasmin (Human plasmin): < 0.001 × 10^6 L/mole
- Kass × 10^6 (L/mole) t-PA (t-PA): < 0.001 × 10^6 L/mole

Compound: N=C(N)Nc1ccc(CCNC(=O)[C@@H]2CCCN2C(=O)[C@@H]2NCC[C@@H]3CCCC[C@@H]32)cc1 [Example 39, D-1-Piq-Pro-p-NHCH2 CH2 C6 H4 NHC (NH) NH2.2HCl]
- Kass × 10^6 (L/mole) Human Thrombin (Human Thrombin): 0.12 × 10^6 L/mole
- Kass × 10^6 (L/mole) Xa (factor Xa): < 0.001 × 10^6 L/mole
- Kass × 10^6 (L/mole) Trypsin (Bovine trypsin): < 0.02 × 10^6 L/mole
- Kass × 10^6 (L/mole) Plasmin (Human plasmin): < 0.001 × 10^6 L/mole
- Human Plasma Anticoagulation 2x Clotting time TT (Human Plasma [1]): 5,300 ng/mL
- Human Plasma Anticoagulation 2x Clotting time APTT (Human Plasma [2]): 69,200 ng/mL
- Human Plasma Anticoagulation 2x Clotting time PT (Human Plasma [3]): 78,600 ng/mL
